Data: the supplement of paper PMC10331698
± gives the standard deviation of the averaged measurements.

Experiments:
Test in all cases: level (log10 ratio to DMSO vehicle control); higher = higher biomarker level / cell amount than vehicle control
[1] = compound: CO[Si](C)(CCC(F)(F)C(F)(F)C(F)(F)C(F)(F)C(F)(F)C(F)(F)F)OC [Dimethoxymethyl((perfluorohexyl)ethyl)silane] (in DMSO)
Method: (§1)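 BioMAP Diversity Plus panel of 12 human primary cell co-culture systems (3C, 4H, LPS, SAg, BT, BF4T, BE3C, CASM3C, HDF3CGF, KF3CT, MyoF, Mphg). Compounds were added 1 h before stimulation and left for 24 h (MyoF 48 h; BT 72 h for soluble read-outs or 6 d for IgG). Biomarkers were read by ELISA, cytotoxicity by SRB, PBMC viability and proliferation by Alamar Blue. Each well value was divided by the mean of 8 DMSO control wells on the same plate and log10 transformed; duplicate blinded samples were tested at 4 concentrations.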

[2] = compound: C[C@@H]1C[C@H]2[C@@H]3CCC4=CC(=O)C=C[C@]4(C)[C@@]3(F)[C@@H](O)C[C@]2(C)[C@@]1(O)C(=O)COP(=O)(O)O [Dexamethasone sodium phosphate] (in DMSO)
Method: as §1

Octafluoroadipic acid = compound: O=C(O)C(F)(F)C(F)(F)C(F)(F)C(F)(F)C(=O)O [Octafluoroadipic acid] (in DMSO)
Method: as §1

[3] = compound: NS(=O)(=O)C(F)(F)C(F)(F)C(F)(F)C(F)(F)C(F)(F)C(F)(F)C(F)(F)C(F)(F)F [Perfluorooctanesulfonamide] (in DMSO)
Method: as §1

[4] = compound: OCC(F)(F)OC(F)(F)C(F)(F)OC(F)(F)C(F)(F)OC(F)(F)CO [1H,1H,11H,11H-Perfluorotetraethylene glycol] (in DMSO)
Method: as §1

[5] = compound: O=S(=O)(O)C(F)(F)C(F)(F)C(F)(F)C(F)(F)C(F)(F)C(F)(F)C(F)(F)F [Perfluoroheptanesulfonic acid] (in DMSO)
Method: as §1

Test System	level (log10) ([1]; 6700 nM)	level (log10) ([1]; 20000 nM)	level (log10) ([2]; 1500 nM)	level (log10) ([2]; 4400 nM)	level (log10) ([2]; 13000 nM)	level (log10) ([2]; 40000 nM)	level (log10) (Octafluoroadipic acid; 6700 nM)	level (log10) (Octafluoroadipic acid; 20000 nM)	level (log10) (Octafluoroadipic acid; 60000 nM)	level (log10) ([3]; 6700 nM)	level (log10) ([3]; 20000 nM)	level (log10) ([4]; 6700 nM)	level (log10) ([4]; 20000 nM)	level (log10) ([4]; 60000 nM)	level (log10) ([5]; 1500 nM)	level (log10) ([5]; 4400 nM)	level (log10) ([5]; 13000 nM)	level (log10) ([5]; 40000 nM)
3C:CCL2/MCP-1	-0.0005 ± 0.0021	0.012 ± 0.0042	0.012 ± 0.013	-0.0125 ± 0.005	-0.0155 ± 0.00071	-0.004 ± 0.013	-0.0115 ± 0.0064	-0.0105 ± 0.011	0.0135 ± 0.036	-0.0015 ± 0.0021	0.085 ± 0.0057	-0.001 ± 0.018	-0.005 ± 0.027	-0.015 ± 0.0057	-0.0035 ± 0.005	-0.0065 ± 0.0021	0.002 ± 0.0014	0.01 ± 0.0014
MyoF:Collagen III	0.0175 ± 0.019	-0.011 ± 0.011	0.0055 ± 0.021	0.0255 ± 0.035	0.0185 ± 0.021	0.028 ± 0.018	-0.002 ± 0.021	-0.0085 ± 0.028	-0.0015 ± 0.035	-0.014 ± 0.0099	-0.242 ± 0.023	-0.002	-0.0085 ± 0.011	-0.0415 ± 0.0078	-0.0035 ± 0.022	0.002 ± 0.0085	-0.0195 ± 0.013	-0.006 ± 0.025
CASM3C:IL-6	-0.0225 ± 0.00071	0.013 ± 0.051	-0.166 ± 0.096	-0.232 ± 0.023	-0.246 ± 0.015	-0.189 ± 0.092	-0.0225 ± 0.0092	-0.0115 ± 0.0064	0.013 ± 0.061	-0.0275 ± 0.018	-0.023 ± 0.014	-0.0195 ± 0.021	-0.0305 ± 0.026	-0.013 ± 0.035	0.021 ± 0.05	-0.029 ± 0.0014	-0.0305 ± 0.026	0.011 ± 0.088
BE3C:uPA	0.0115 ± 0.011	-0.0055 ± 0.013	-0.0165 ± 0.005	-0.0125 ± 0.021	-0.036 ± 0.027	-0.051 ± 0.038	-0.002 ± 0.02	-0.0135 ± 0.005	-0.0005 ± 0.0021	-0.0065 ± 0.013	0.0145 ± 0.0064	-0.0105 ± 0.011	0.0055 ± 0.013	-0.0075 ± 0.0021	-0.0055 ± 0.023	-0.004 ± 0.034	-0.0235 ± 0.032	-0.018 ± 0.038
MyoF:PAI-I	0.0075 ± 0.0092	0.008 ± 0.0014	0.0185 ± 0.0078	0.0085 ± 0.015	0.005 ± 0.0028	0.0085 ± 0.012	-0.012 ± 0.0099	-0.01 ± 0.017	0.001 ± 0.0085	0.0135 ± 0.019	0.006 ± 0.0071	-0.01 ± 0.02	-0.0135 ± 0.013	-0.01 ± 0.018	0.008 ± 0.0085	0.0085 ± 0.00071	0.005 ± 0.0028	0.019 ± 0.023
MyoF:Collagen IV	0.0085 ± 0.018	0.038 ± 0.0028	-0.007 ± 0.021	0.011 ± 0.041	0.0005 ± 0.037	0.0195 ± 0.011	-0.0175 ± 0.0064	-0.016 ± 0.016	0.002 ± 0.021	0.118 ± 0.015	0.28 ± 0.028	-0.012 ± 0.0014	-0.0015 ± 0.011	0.0245 ± 0.021	0.013 ± 0.018	-0.017 ± 0.0057	-0.012 ± 0.013	0.0025 ± 0.023
lMphg:CXCL8/IL-8	-0.0095 ± 0.029	0.0025 ± 0.015	-0.108 ± 0.0064	-0.138 ± 0.015	-0.136 ± 0.011	-0.129 ± 0.034	0.009 ± 0.0099	-0.0015 ± 0.028	0.0495 ± 0.091	0.004 ± 0.0042	0.124 ± 0.019	-0.022 ± 0.017	-0.034 ± 0.017	-0.0265 ± 0.032	-0.001 ± 0.038	-0.0165 ± 0.0078	-0.018 ± 0.023	0.074 ± 0.069
MyoF:SRB	0.0045 ± 0.0064	0.0005 ± 0.00071	-0.01 ± 0.0099	-0.0105 ± 0.0035	-0.0135 ± 0.0092	-0.0105 ± 0.00071	-0.0105 ± 0.0064	-0.005 ± 0.013	-0.0015 ± 0.00071	-0.0135 ± 0.0035	-0.136 ± 0.0021	-0.0065 ± 0.00071	-0.0145 ± 0.00071	-0.0445 ± 0.015	-0.009 ± 0.0099	0.002 ± 0.0028	0.002 ± 0.0014	-0.007 ± 0.0042
3C:CD142/Tissue Factor	0.015 ± 0.02	0.021 ± 0.033	0.034 ± 0.038	0.0265 ± 0.015	0.0335 ± 0.0078	0.0775 ± 0.028	0.02 ± 0.061	0.0375 ± 0.067	0.0085 ± 0.061	-0.05 ± 0.017	-0.033 ± 0.031	-0.0315 ± 0.037	-0.009 ± 0.0014	-0.013 ± 0.05	0.0375 ± 0.011	0.021 ± 0.031	0.048 ± 0.048	0.0665 ± 0.1
CASM3C:CD142/Tissue Factor	-0.001 ± 0.011	-0.0075 ± 0.005	0.101 ± 0.034	0.099 ± 0.042	0.0875 ± 0.023	0.079 ± 0.0028	-0.011 ± 0.0071	-0.0045 ± 0.0092	-0.0145 ± 0.00071	0.021 ± 0.011	0.082 ± 0.04	-0.0165 ± 0.032	-0.024 ± 0.013	-0.0125 ± 0.0035	-0.0305 ± 0.035	-0.0125 ± 0.019	-0.026 ± 0.024	-0.04 ± 0.068
CASM3C:CD87/uPAR	0.007 ± 0.011	-0.0045 ± 0.026	0.0255 ± 0.011	0.0045 ± 0.005	-0.026 ± 0.024	-0.0215 ± 0.076	-0.012 ± 0.0057	-0.014 ± 0.0085	-0.0015 ± 0.0064	-0.007 ± 0.031	-0.0055 ± 0.026	-0.019 ± 0.024	-0.026 ± 0.034	-0.011 ± 0.018	-0.028 ± 0.042	0.0045 ± 0.049	-0.0165 ± 0.049	-0.0555 ± 0.035
KF3CT:MMP-9	-0.008 ± 0.0014	-0.0065 ± 0.016	-0.0065 ± 0.00071	-0.002	-0.023 ± 0.014	-0.0175 ± 0.013	-0.0065 ± 0.005	0.0085 ± 0.015	0.0175 ± 0.015	0.0365 ± 0.026	-0.274 ± 0.023	0.0225 ± 0.021	0.062 ± 0.03	0.0725 ± 0.0078	0.0045 ± 0.025	-0.002 ± 0.0042	-0.01 ± 0.0042	0.0345 ± 0.013
HDF3CGF:M-CSF	-0.039 ± 0.0028	-0.02 ± 0.025	0.0645 ± 0.053	0.049 ± 0.096	0.0505 ± 0.094	0.0175 ± 0.13	-0.0095 ± 0.005	-0.01 ± 0.0085	0.0255 ± 0.036	-0.0605 ± 0.012	-0.507 ± 0.07	-0.036 ± 0.083	-0.121 ± 0.098	-0.261 ± 0.046	-0.0025 ± 0.011	0.0075 ± 0.019	0.003 ± 0.016	0 ± 0.034
MyoF:MMP-1	-0.001 ± 0.011	-0.012 ± 0.017	0.004 ± 0.031	0.005 ± 0.0014	-0.0315 ± 0.013	-0.0125 ± 0.005	-0.013 ± 0.025	-0.0175 ± 0.0035	0.0125 ± 0.03	-0.038 ± 0.013	0.0955 ± 0.04	0 ± 0.027	-0.0085 ± 0.015	0.0465 ± 0.083	0.0105 ± 0.039	-0.0055 ± 0.015	-0.03 ± 0.0085	0.01 ± 0.044
MyoF:CXCL8/IL-8	-0.016 ± 0.0014	0.0085 ± 0.036	-0.0725 ± 0.011	-0.074 ± 0.013	-0.1 ± 0.011	-0.104 ± 0.0057	-0.0025 ± 0.00071	0.002 ± 0.041	0.0235 ± 0.046	-0.04 ± 0.031	-0.013 ± 0.0085	-0.0185 ± 0.011	-0.0215 ± 0.00071	-0.013 ± 0.018	0.0195 ± 0.011	0.022 ± 0.011	0.026	0.032 ± 0.023
3C:CD62E/E-Selectin	-0.023 ± 0.0042	-0.0235 ± 0.005	-0.0055 ± 0.011	-0.024 ± 0.024	-0.005 ± 0.024	0.0005 ± 0.0078	-0.029 ± 0.0071	-0.004 ± 0.016	-0.0205 ± 0.0078	-0.006 ± 0.02	0.043 ± 0.011	-0.0145 ± 0.029	-0.008 ± 0.038	-0.0375 ± 0.036	-0.01 ± 0.021	-0.018	-0.024 ± 0.017	0.005 ± 0.0014
